Laboratory results: patent publication US8563545B2, “Compound useful for the treatment of degenerative and inflammatory diseases” (Galapagos NV, priority 2009, dated 2013)
Where two headings read alike, the source gives them in different places.

How the values were obtained:
[1] = Plasma protein binding (equilibrium dialysis), rat; assay type: in vitro ADME; details: 10 μM, 4 hrs at 37° C.
Experimental: A 10 mM stock solution of the compound in DMSO was diluted with a factor 5 in DMSO. This solution was further diluted in freshly thawed human, rat, mouse or dog plasma (BioReclamation INC) with a final concentration of 10 μM and final DMSO concentration of 0.5% (5.5 μL in 1094.5 μL plasma in a PP-Masterblock 96 well (Greiner, Cat no. 780285))
A Pierce Red Device plate with inserts (ThermoScientific, Cat no. 89809) was prepared and filled with 750 μL PBS in the buffer chamber and 500 μL of the spiked plasma in the plasma chamber. The plate was incubated for 4 hrs at 37° C. while shaking at 230 rpm. After incubation, 120 μL of both chambers was transferred to 360 μL acetonitrile in a 96-well round bottom, PP deep-well plates (Nunc, Cat no. 278743) and sealed with an aluminum foil lid. The samples were mixed and placed on ice for 30 min. This plate was then centrifuged 30 min at 1200 rcf at 4° C. and the supernatant was transferred to a 96 v-bottom PP plate (Greiner, 651201) for analysis on LCMS.
The plate is sealed with sealing mats (MA96RD-04S) of www.kinesis.co.uk and samples are measured at room temperature on LCMS (ZQ 1525 from Waters) under optimized conditions using Quanoptimize to determine the appropriate mass of the molecule.
The samples were analyzed on LCMS with a flow rate of […]. Solvent A was 15 mM ammonia and solvent B was acetonitrile. The sample was run under positive ion spray on an XBridge C18 3.5 μM (2.1×30 mm) column, from Waters. The solvent gradient has a total run time of 2 minutes and ranges from 5% B to 95% B.
Peak area from the compound in the buffer chamber and the plasma chamber are considered to be 100% compound.

[2] = Pharmacokinetic study in rodents; assay type: in vivo, rat; details: for F: PO 5 mg/kg vs IV 1 mg/kg; for Cmax: read-out: C0 or Cmax; for AUC: read-out: AUC (0-z); for Vd: read-out: Vss; for AUC(0-t): read-out: AUC (0-24 h)
Experimental: Sprague-Dawley rats (male, 5-6 weeks old) were obtained from Janvier (France). Rats were acclimatized for at least 7 days before treatment and were kept on a 12 hr light/dark cycle (0700-1900). Temperature was maintained at approximately 22° C., and food and water were provided ad libitum. […] After the surgery, rats were housed individually. Rats were deprived of food for at least 16 hours before oral dosing and 6 hours after. Water was provided ad libitum.
Test compounds were orally dosed as a single esophageal gavage at 5 mg/kg under a dosing volume of 5 ml/kg and intravenously dosed as a bolus via the caudal vein at 1 mg/kg under a dosing volume of 5 mL/kg. Each group consisted of 3 rats. […] For compound 11, blood samples were collected at the retro-orbital sinus with lithium heparin as anti-coagulant at the following time points 0.25, 1, 3 and 6 hrs (oral route). Whole blood samples were centrifuged at 5000 rpm for 10 min and the resulting plasma samples were stored at −20° C. pending analysis.
Plasma concentrations of each test compound were determined by an LC-MS/MS method in which the mass spectrometer was operated in positive electrospray mode.
Pharmacokinetic parameters were calculated using Winnonlin® (Pharsight®, United States).

[3] = Microsomal stability, human; assay type: in vitro ADME; details: human liver microsomes, 3 μM compound
Experimental: A 10 mM stock solution of compound in DMSO was diluted 1000 fold in a 182 mM phosphate buffer pH7.4 in a 96 deep well plate (Greiner, Cat no. 780285) and pre-incubated at 37° C. 40 μL of deionised water was added to a well of a polypropylene Matrix 2D barcode labelled storage tube (Thermo Scientific) and pre-incubated at 37° C.
A Glucose-6-phophate-dehydrogenase (G6PDH) working stock solution was prepared in 182 mM phosphate buffer pH7.4 and placed on ice before use. A co-factor containing MgCl2, glucose-6-phosphate and NADP+ was prepared in deionised water and placed on ice before use.
A final working solution containing liver microsomes (Xenotech) of a species of interest (human, mouse, rat, dog), previously described G6PDH and co-factors was prepared and this mix was incubated for no longer than 20 minutes at room temperature.
30 μL of the pre-heated compound dilution was added to 40 μL of pre-heated water in the Matrix tubes and 30 μL, of the microsomal mix was added. Final reaction concentrations were 3 μM compound, 1 mg microsomes, 0.4 U/mL GDPDH, 3.3 mM MgCl2, 3.3 mM glucose-6-phosphate and 1.3 mM NADP+.
To measure percentage remaining of compound at time zero MeOH or ACN was added (1:1) to the well before adding the microsomal mix. The plates were sealed with Matrix Sepra Seals™ (Matrix, Cat. No. 4464) and shaken for a few seconds ensure complete mixing of all components.
The samples which were not stopped are incubated at 37° C., 300 rpm and after 1 hr of incubation the reaction was stopped with MeOH or ACN (1:1).
After stopping the reaction the samples were mixed and placed on ice for 30 min to precipitate the proteins. The plates were then centrifuged 30 min at 1200 rcf at 4° C. and the supernatant was transferred to a 96 v-bottom PP plate (Greiner, 651201) for analysis on LCMS.
These plates were sealed with sealing mats (MA96RD-04S) of www.kinesis.co.uk and samples were measured at room temperature on LCMS (ZQ 1525 from Waters) under optimized conditions using Quanoptimize to determine the appropriate mass of the parent molecule.
The samples were analyzed on LCMS with a flow rate of 1 mL/min. Solvent A was 15 mM ammonia and solvent B was methanol or acetonitrile, depending on the stop solution used. The samples were run under positive ion spray on an XBridge C18 […] (2.1×30 mm) column, from Waters.
Peak area from the parent compound at time 0 was considered to be 100% remaining. The percentage remaining after 1 hr incubation was calculated from time 0 and was calculated as the percentage remaining. The solubility of the compound in the final test concentration in buffer is inspected by microscope and results are reported.
The data on microsomal stability are expressed as a percentage of the total amount of compound remaining after 60 min.

[4] = male, Sprague-Dawley, rat, plasma, po, 5 mg/kg
[5] = male, plasma, Sprague-Dawley rat, IV 1 mg/kg
[6] = male, plasma, Sprague-Dawley rat, IV 1 mg/kg (C0)
[7] = male, plasma, Sprague-Dawley rat, PO 5 mg/kg

Row | Structure (SMILES) | percentage bound to plasma, Rat [1] [%] | F ([2]; Sprague-Dawley rat) [%] | Cmax [2, 4] [ng/mL] | clearance [2, 5] [mL/min/kg] | Cmax [2, 6] [ng/mL] | AUC [2, 5] [ng·h/mL] | Vd [2, 5] [L/kg] | Tmax [2, 7] [min] | AUC(0-t) [2, 7] [ng·h/mL] | AUC [2, 7] [ng·h/mL] | percentage of compound remaining after 60 min, Human [3] [%] | Cl ([2]; Sprague-Dawley rat, IV 1 mg/kg) | AUC(0-t) [2, 5] [ng·h/mL]
1 | O=C(Nc1nc2cccc(-c3ccc(CN4CCS(=O)(=O)CC4)cc3)n2n1)C1CC1 [Compound 1, Cyclopropanecarboxylic acid {5-[4-(1,1-dioxo-1-thiomorpholin-4-ylmethyl)-phenyl]-[1,2,4]triazolo [1,5-a]pyridin-2-yl}-amide] | 65.7 | 45 | 310 | 22.5 | 1410 | 722 | 1.76 | 132 | 1680 | 1430 | 87.2 | – | –
2 | O=C(Nc1nc2cccc(-c3ccc(CN4CCOCC4)cc3)n2n1)C1CC1 [Compound 2, N-(5-(4-(morpholinomethyl)phenyl)-[1,2,4]triazolo[1,5-a]pyridin-2-yl)cyclopropanecarboxamide] | 64.5 | 62 | 1320 | – | 863 | 470 | 1.46 | 19.8 | 1460 | 1440 | 73 | 2.12 | 474
3 | O=C(Nc1nc2cccc(-c3ccc(C(=O)N4CCS(=O)(=O)CC4)cc3)n2n1)C1CC1 [Compound 10, Cyclopropanecarboxylic acid {5-[4-(1,1-dioxo-1-thiomorpholine-4-carbonyl)-phenyl]-[1,2,4]triazolo [1,5-a]pyridin-2-yl}-amide] | 51 | – | – | – | – | – | – | – | – | – | 102 | – | –
4 | O=C(Nc1nc2cccc(-c3ccc(CN4CCC(F)(F)CC4)cc3)n2n1)C1CC1 [Compound 11, Cyclopropanecarboxylic acid {5-[4-(4,4-difluoro-piperidin-1-ylmethyl)-phenyl]-[1,2,4]triazolo [1,5-a]pyridin-2-yl}-amide] | 76.5 | – | 547 | – | – | – | – | 15 | – | 690 | 51 | – | –
